The values below come from patent US20230235301A1, “Compounds and Methods for Treating, Ameliorating, or Preventing Herpes Ocular Keratitis” (THE TRUSTEES OF THE UNIVERSITY OF PENNSYLVANIA, priority 2020, published 2023).

For series [1], the system named is HSV-1. Description: microbe, parasite or virus in culture. The class given is cell-based. The note with it: 1 h. The protocol:
(§1) Cells with ~90% confluence in 48-well plates were infected by absorbing virus (~100 PFU/well) for 1 h in 100 µL growth medium followed by adding 200 µL culture medium containing DMSO vehicle or serially diluted peptides or Acyclovir (Tocris Bioscience-Fisher Scientific) to each well of the plate. DMSO was maintained at 1% throughout the treatment. Cells were subsequently fixed and stained with 300 µL PBS containing 4% formaldehyde and 0.2% crystal violet overnight at room temperature. HSV-1 plaques were quantified at ~55 h post-infection of Vero cells. VV (WR strain) infection of BSC-1 cells was analyzed for plaque formation after 24 h. The plaque reduction assays were performed in duplicate and independently repeated twice. Cells were stained, and plaques counted under a dissecting microscope. Data were plotted on the GraphPad Prism.
Standard viral plaque reduction assays were conducted in Vero cells to determine if any of the five stapled peptides (S-pep1/3/4/7/8) that were able to block processive DNA synthesis, could also block HSV-1 infection. To minimize possible interference of HSV-1 cell attachment and entry by the peptides, cells were first infected by absorbing the virus for 1 h, followed by treatment with peptides at serial dilutions. […] The EC50 values of both S-pep3 and S-pep8 were approximately 100 µM (FIG. 15C and FIG. 15F). Additionally, S-pep4 was toxic at 12.5 µM, which precluded further optimization.

Series [2] is described as follows: ATP-based cytotoxicity in human primary corneal epithelial cells. The class given is cell-based. The note with it: read-out: CC50 by ATP measurement. The protocol: (§2) Cells were grown in 96-well plates to ~80% confluence and treated with peptides at different concentrations in 150 µL growth medium containing 1% DMSO. At 24 h post-treatment, 100 µL of the culture medium was used for the lactate dehydrogenase (LDH) cytotoxicity assay. In addition, the cells from the same treatment were assessed with an ATP-based cell viability assay. Briefly, after the growth medium was completely removed, the cells were lysed in 100 µL of 1% Triton X-100 in PBS per well at room temperature. After 10 min, 5 µL of lysate was used for ATP-based luciferase/luminescence assay according to the manufacturer’s protocol (Invitrogen, USA). The assays were performed in triplicate and independently repeated twice.

In series [3] the test system is vaccinia virus (VV, WR strain). The format is cell-based. The note with it: BSC-1 cells, plaques after 24 h.
The test system of series [4] is HSV-1 viral DNA (UL42 gene). Description: HSV-1 DNA replication in infected Vero cells (UL42 gene PCR). The format is cell-based. The protocol: Confluent Vero cells in 48-well plates were infected by absorbing 10^5 PFU of HSV-1 (MOI ~1) for 1 h in 100 µL of DMEM medium containing 5% FBS. Unabsorbed virus was removed by washing the wells 4 times with PBS. Cells were then treated with S-pep7B (SEQ ID NO:32) peptide in triplicate at different dilutions in 300 µL growth medium containing 1% DMSO. At 4 h post-treatment, cells of each triplicate treatment were combined and lysed with 20 mM Tris buffer (pH 7.5) containing 20 mM EDTA, 0.5% SDS, and 0.5 mg/mL proteinase K. Total DNA was then prepared from the lysed cells with phenol/chloroform extraction and ethanol precipitation, and used for UL42 gene amplification by PCR using the primers described above for plasmid construction. After agarose gel electrophoresis, UL42 DNA levels were quantitated using an image capture and analysis system (G:Box Chemi HR, Syngene) and normalized to that of the cellular house-keeping gene GAPDH (glyceraldehyde-3-phosphate dehydrogenase), which was amplified using primers (forward: 5′-[…]-3′ (SEQ ID NO:55), and reverse: 5′-[…]-3′) (SEQ ID NO:56). The assays were independently repeated twice.
Experiments were subsequently performed to determine if the HSV-1 antiviral activity of S-pep7B was specifically due to the inhibition of viral DNA replication. […]

Series [5] concerns Vero cells. Description: Cytotoxicity observed in the plaque reduction assays. The class given is cell-based, African green monkey. As for the experimental part:
as §1
Cellular cytotoxicity of the N-terminal substituted stapled peptides was also assessed. S-pep7A caused observable cell death at 50 µM in the plaque assays.

Series [6] is described as follows: Cytotoxicity and cell viability assays (ATP content, LDH leakage) in Vero cells. The conditions noted are these: African green monkey, 24 h treatment. The class given is cell-based. The protocol:
as §2

Series [7] relates to HSV-1. Description: HSV-1 infection of human 3D organotypic corneal culture. The class given is cell-based. The note with it: 25 µM, 5 days treatment, 3D organotypic corneal tissue. From the text:
Cultures were assembled with human dermal fibroblasts isolated from newborn foreskins and primary human corneal epithelial cells isolated from unused sclerolimbal rings from corneal transplants. After three weeks, organotypic cultures with differentiated corneal epithelial cells overlaying a layer of fibroblasts are established, reproducing the organization of the anterior corneal surface (FIG. 23A).
The assembled 3D organotypic corneal culture was infected with HSV-1 by gently abrading the surface and topically applying 10^6 PFU/mL of HSV-1. After 1 h, unabsorbed virus was removed, and the culture was incubated in medium containing 25 µM S-pep7B in 0.5% DMSO. Treatment occurred over a period of 5 days, in which the medium containing S-pep7B was refreshed every other day. The corneal tissues were examined microscopically each day. At the end of the treatment period, the 3D tissue was cut in half, using the first half to measure the virus titer by plaque assay and the other half for histological examination.

SMILES strings stand for the structures. Positions of bridges follow the written chain, without caps; N, C: chain ends. Non-standard residues stand in square brackets, D forms with d. Residues, ends and D or L forms follow the SMILES beside them. S5 = C=CCCC[C@](C)(N)C(=O)O

In the case of `CC(=O)N[C@H](C(=O)N[C@H](C(=O)N[C@H](C(=O)N[C@@H](CCCNC(=N)N)C(=O)N[C@@H](CCCNC(=N)N)C(=O)N[C@@]1(C)CCCC=CCCC[C@@](C)(C(=O)N[C@@H](Cc2ccccc2)C(=O)N[C@@H](CC(=O)O)C(=O)N[C@H](C(=O)N[C@@H](CC(C)C)C(=O)N[C@@H](C)C(=O)O)[C@@H](C)O)NC(=O)[C@H](CCCNC(=N)N)NC(=O)[C@H](Cc2c[nH]cn2)NC(=O)[C@H](CC(C)C)NC1=O)[C@@H](C)O)C(C)C)C(C)C` [S-pep7B, Ac-VVTRRXLHRXFDTLA] (Ac-VVTRR[S5]LHR[S5]FDTLA-OH; staple 6-10; C-terminus assumed), in series [1], the 50% effective concentration (EC50) was 9.8 µM. Also, the CC50 at 24 h in series [2] amounted to 31.2 µM; in series [6] (read-out: CC50, LDH leakage), 126 µM; in series [6] (read-out: CC50, intracellular ATP content), 114 µM. Besides, the “inhibition of VV infection of cells” value in series [3] is “did not inhibit”. The “viral DNA level relative to time point 0 h” value in series [4] (50 µM, 4 h post-treatment) is listed as “completely suppressed”. Moreover, the “UL42 DNA levels in infected cells” value in series [4] (MOI ~1, 4 h post-treatment, increasing concentrations, normalized to GAPDH) is recorded as “greatly reduced”. In series [5], the “concentration at which toxicity / cell death was observed in the plaque assays” value is given as “no visible cytotoxicity”. The “HSV-1 structural gB protein (immunostaining)” value in series [7] is “complete absence”. The “nuclear morphology (DAPI staining)” value in series [7] was “unremarkable nuclear morphology”.
